Measured values taken from patent US20100075960A1 (priority 2006, published 2010).

Experiments:
Format in all cases: cell-based
LNCaP = assay: Inhibition of cell proliferation, LNCaP; conditions: Homo sapiens, Prostate, 72 h, methylene blue or CellTiter-Glo
Method: (§1) II. Inhibition of Cell Proliferation by PLK1 Inhibitors.
(§2) Exponentially growing cell lines of different tumor origins, cultured in appropriate media containing 10% fetal bovine serum at 37° C. in a 5% CO2 incubator were plated in 96 or 384-well plates. Twenty four hours post-plating, cells were treated with different concentrations of test compounds ranging from 20 μM to 0.04 nM. Several wells were left untreated as a control. Seventy two hours post-treatment, cell numbers were determined using different techniques; 100 μl per well of methylene blue (Sigma M9140) (0.5% in 50:50 Ethanol:water), or 10-100 μl per well of CellTiter-Glo (Promega #G7573), depending on well size. For methylene blue staining, stain was incubated at room temperature for 30 minutes before plates were rinsed and dye solubilized in 1% N-lauroyl sarcosine, sodium salt, (Sigma L5125, in PBS). Plates were read on a microplate reader, measuring the OD at 620 nm. For CellTiter-Glo, plates were incubated at room temperature for 15 minutes and the chemiluminescent signal was read on the Victor V or Envison 2100 reader.
(§3) Percent inhibition of cell growth was expressed as percent proliferation relative to 100% proliferation (control). […]

EB-3 = assay: Inhibition of cell proliferation, EB-3; conditions: Homo sapiens, peripheral blood, 72 h, methylene blue or CellTiter-Glo
Method: as §1, §2, §3

SKMEL28 = assay: Inhibition of cell proliferation, SKMEL28; conditions: Homo sapiens, SK-MEL-28; skin; 72 h; methylene blue or CellTiter-Glo
Method: as §1, §2, §3

Capan-2 = assay: Inhibition of cell proliferation, Capan-2; conditions: Homo sapiens, pancreas, 72 h, methylene blue or CellTiter-Glo
Method: as §1, §2, §3

NCI-H727 = assay: Inhibition of cell proliferation, NCI-H727; conditions: Homo sapiens, lung, 72 h, methylene blue or CellTiter-Glo
Method: as §1, §2, §3

ASPC3 = assay: Inhibition of cell proliferation, ASPC3; conditions: Pancreatic; 72 h; methylene blue or CellTiter-Glo
Method: as §1, §2, §3

MiaPaca = assay: Inhibition of cell proliferation, MiaPaca; conditions: Homo sapiens, MIA PaCa-2; Pancreatic; 72 h; methylene blue or CellTiter-Glo
Method: as §1, §2, §3

P388 = assay: Inhibition of cell proliferation, P388; conditions: Mouse leukemia, 72 h, methylene blue or CellTiter-Glo
Method: as §1, §2
(§4) Percent inhibition of cell growth was expressed as percent proliferation relative to 100% proliferation (control). Concentration of test compound that inhibited 50% of cell growth (IC50) was determined by 4 parameter fit of data using XLfit, (value of no cell control was substracted from all samples for background). The data are shown in Table 1 and Table 2 below and represent a compilation of several different experiments each performed using the general parameters outlined above, although minor variations may have been employed in some instances, in Table 1 and Table 2, +=IC50>1 μM; ++=IC50 0.5-1 μM: +++=IC50<0.5 μM.

SKMEL3 = assay: Inhibition of cell proliferation, SKMEL3; conditions: Homo sapiens, SK-MEL3; skin; 72 h; methylene blue or CellTiter-Glo
Method: as §1, §2, §3

SK-BR-3 = assay: Inhibition of cell proliferation, SK-BR-3; conditions: Homo sapiens, breast, 72 h, methylene blue or CellTiter-Glo
Method: as §1, §2, §3

LoVo = assay: Inhibition of cell proliferation, LoVo; conditions: Homo sapiens, colon, 72 h, methylene blue or CellTiter-Glo
Method: as §1, §2, §3

A549-L = assay: Inhibition of cell proliferation, A549-L; conditions: lung; 72 h; methylene blue or CellTiter-Glo
Method: as §1, §2, §4

CEM/C1 = assay: Inhibition of cell proliferation, CEM/C1; conditions: peripheral blood, 72 h, methylene blue or CellTiter-Glo
Method: as §1, §2, §3

Panc 02.03 = assay: Inhibition of cell proliferation, Panc 02.03; conditions: Homo sapiens, pancreas, 72 h, methylene blue or CellTiter-Glo
Method: as §1, §2, §3

MCF7 = assay: Inhibition of cell proliferation, MCF7; conditions: Homo sapiens, Breast, 72 h, methylene blue or CellTiter-Glo
Method: as §1, §2, §3

MALME-3M = assay: Inhibition of cell proliferation, MALME-3M; conditions: Homo sapiens, skin, derived from lung, 72 h, methylene blue or CellTiter-Glo
Method: as §1, §2, §3

U87-MG = assay: Inhibition of cell proliferation, U87-MG; conditions: Homo sapiens, U-87 MG; brain; 72 h; methylene blue or CellTiter-Glo
Method: as §1, §2, §3

BDCM = assay: Inhibition of cell proliferation, BDCM; conditions: peripheral blood; 72 h; methylene blue or CellTiter-Glo
Method: as §1, §2, §3

SKOV-3 = assay: Inhibition of cell proliferation, SKOV-3; conditions: Homo sapiens, SK-OV-3; Ovarian; 72 h; methylene blue or CellTiter-Glo
Method: as §1, §2, §4

MX-1 = assay: Inhibition of cell proliferation, MX-1; conditions: Homo sapiens, MX1; Breast; 72 h; methylene blue or CellTiter-Glo
Method: as §1, §2, §4

CA46 = assay: Inhibition of cell proliferation, CA46; conditions: Homo sapiens, peripheral blood, 72 h, methylene blue or CellTiter-Glo
Method: as §1, §2, §3

NCI-N87 = assay: Inhibition of cell proliferation, NCI-N87; conditions: Homo sapiens, stomach, 72 h, methylene blue or CellTiter-Glo
Method: as §1, §2, §3

MDA-MB-468 = assay: Inhibition of cell proliferation, MDA-MB-468; conditions: Homo sapiens, Breast, 72 h, methylene blue or CellTiter-Glo
Method: as §1, §2, §3

Hep3B = assay: Inhibition of cell proliferation, Hep3B; conditions: Homo sapiens, liver, 72 h, methylene blue or CellTiter-Glo
Method: as §1, §2, §3

COLO205 = assay: Inhibition of cell proliferation, COLO205; conditions: Homo sapiens, COLO 205; Colon; 72 h; methylene blue or CellTiter-Glo
Method: as §1, §2, §4

A431 = assay: Inhibition of cell proliferation, A431; conditions: Homo sapiens, A-431; skin; 72 h; methylene blue or CellTiter-Glo
Method: as §1, §2, §3

HT29 = assay: Inhibition of cell proliferation, HT29; conditions: Homo sapiens, HT-29; Colon; 72 h; methylene blue or CellTiter-Glo
Method: as §1, §2, §4

H1299 = assay: Inhibition of cell proliferation, H1299; conditions: Homo sapiens, NCI-H1299; Lung; 72 h; methylene blue or CellTiter-Glo
Method: as §1, §2, §3

HCT-15 = assay: Inhibition of cell proliferation, HCT-15; conditions: Homo sapiens, colon, 72 h, methylene blue or CellTiter-Glo
Method: as §1, §2, §3

CRO-AP2 = assay: Inhibition of cell proliferation, CRO-AP2; conditions: Homo sapiens, peripheral blood, 72 h, methylene blue or CellTiter-Glo
Method: as §1, §2, §3

In the case of `C[C@@H](Oc1cc(-n2cnc3cc(-c4cnn(C)c4)ccc32)sc1C(N)=O)c1cccc(OC2CCN(C)CC2)c1Cl` [Example 48], the IC50 (LNCaP) is reported as < 500 nM, the IC50 (EB-3) is reported as < 500 nM and the IC50 (SKMEL28) is reported as > 1000 nM. For the same compound, the IC50 (Capan-2) was > 1000 nM, the IC50 (NCI-H727) was > 1000 nM and the IC50 (ASPC3) was < 500 nM. For the same compound, the IC50 (MiaPaca) was < 500 nM, the IC50 (P388) was < 500 nM and the IC50 (SKMEL3) was < 500 nM. For the same compound, the IC50 (SK-BR-3) was < 500 nM, the IC50 (LoVo) was < 500 nM and the IC50 (A549-L) was < 500 nM. The IC50 (CEM/C1) was < 500 nM, the IC50 (Panc 02.03) was < 500 nM and the IC50 (MCF7) was < 500 nM. For the same compound, the IC50 (MALME-3M) was > 1000 nM, the IC50 (U87-MG) was < 500 nM and the IC50 (BDCM) was < 500 nM. For the same compound, the IC50 (SKOV-3) was < 500 nM, the IC50 (MX-1) was < 500 nM and the IC50 (CA46) was < 500 nM. The IC50 (NCI-N87) was < 500 nM, the IC50 (MDA-MB-468) was < 500 nM and the IC50 (Hep3B) was < 500 nM. For the same compound, the IC50 (COLO205) was < 500 nM, the IC50 (A431) was < 500 nM and the IC50 (HT29) was < 500 nM. For the same compound, the IC50 (H1299) was < 500 nM, the IC50 (HCT-15) was < 500 nM and the IC50 (CRO-AP2) was < 500 nM.
